Data published in the METLIN SMRT retention time set (Domingo-Almenara et al. 2019).

Assay: gradient 5% acetonitrile 3 min, to 50% in 2 min, to 85% in 15 min, held 3 min, 100 µL/min
Settings: column: Zorbax Extend-C18 2.1 x 50 mm; eluents: water / acetonitrile, 0.1% formic acid
Procedure, shortened: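 Data were gathered over 3 months by HPLC coupled to a quadrupole time-of-flight mass spectrometer, operated in positive and negative ionization mode. Mixtures of ~100 pure standards ran on a Zorbax Extend-C18 column (2.1 × 50 mm, 1.8 μm) at 100 μL/min, with water and acetonitrile each containing 0.1% formic acid and dead and dwell volumes of 40 μL and 900 μL. Retention time was read from adduct peaks picked by computer and checked manually.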

Row | RP-LC retention time [s] | SMILES
1 | 957 | O=C(NCc1ccc(F)cc1)c1cc(N2CCCC2)n2nccc2n1
2 | 731 | Cc1cccc(C(=O)N2C[C@H](c3nc(-c4ccccc4)no3)[C@@H](C)C2)c1
3 | 830 | COc1ccc(NC(=O)NC(C(=O)N2CCc3ccccc32)C(C)C)cc1OC (configuration not stated)
4 | 552 | COC(=O)c1ccc(CNC2CCN(c3ccc(C(=O)NC4CC4)cn3)C2)cc1 (configuration not stated)
5 | 996 | O=C1C(Br)=Cc2cccc3cccc1c23
6 | 622 | O=C(Nc1ccccn1)C1CCN(C(=O)C2Sc3ccccc3NC2=O)CC1 (configuration not stated)
7 | 599 | CC(C)N1CCC(c2nnc3n2CCN(S(=O)(=O)c2ccccc2Cl)C3)C1 (configuration not stated)
8 | 954 | COc1ccc(-c2noc(CN3C(=O)COc4cc(C)ccc43)n2)cc1OC
9 | 1020 | COc1ccccc1-c1nc(C2CC(=O)N(c3ccc(F)c(Cl)c3)C2)no1 (configuration not stated)
10 | 1410 | CCCCC1CCC(C(=O)Nc2nc(-c3ccc4c(c3)N(C)C(=O)CO4)c(C)s2)CC1 (configuration not stated)
11 | 749 | COc1ccc(C(=O)N2CCN(c3cc(-c4cccs4)[nH]n3)CC2)cc1
12 | 1020 | COc1ccc(S(=O)(=O)N2CCCC(C(=O)N3CCc4ccccc4C3)C2)cc1Cl (configuration not stated)
13 | 796 | COc1ccc(CNC(=O)C2c3ccccc3C(=O)N3CCc4ccccc4C23)c(OC)c1 (configuration not stated)
14 | 689 | O=C(Cn1ncc2c3ccccc3n(Cc3ccc(F)cc3)c2c1=O)N1CCN(c2ccccn2)CC1
15 | 1210 | CCOc1ccc(NC(=O)C2CCCN(c3nc4ccccc4nc3C(F)(F)F)C2)cc1 (configuration not stated)
16 | 838 | Cc1nnc2ccc(N3CCC(C(=O)NCCCN4CCN(c5ccc(F)cc5)CC4)CC3)nn12
17 | 872 | O=C(Cn1ccc2ccn(Cc3ccccc3)c2c1=O)NCc1cccs1
18 | 1320 | Cc1nc(-c2cc(S(=O)(=O)N(C)C3CCCCC3)c(C)s2)sc1C
19 | 575 | COCCOc1cc(=O)n2c(c1C(=O)NC1CCC1)CCOCC2
20 | 1150 | CC(/C=C1\SC(=S)N(CC(=O)O)C1=O)=C\c1ccccc1
21 | 590 | CCCn1ccc2oc(C)c(C(=O)N3CCC(N4CCCCC4)CC3)c2c1=O
22 | 994 | Cn1c(Nc2ccc(C(F)(F)F)cc2)nc2cc(Oc3ccnc(-c4ncc(C(F)(F)F)[nH]4)c3)ccc21
23 | 627 | CCc1cc(=O)n(CC(=O)N2CCc3ccccc32)c(N)n1
24 | 730 | CCCNC(=O)C1CCN(c2ccc(SCC(=O)Nc3cc(Cl)ccc3OC)nn2)CC1
25 | 858 | Cc1ccc(NS(=O)(=O)c2ccc([N+](=O)[O-])cc2)c(-c2nc3ccccc3[nH]c2=O)c1

Row | RP-LC retention time [s] | SMILES
26 | 946 | CCS(=O)(=O)N1CC(=O)N(c2ccc(Cl)cc2C)C(C)(C(=O)NC2CCCCC2)C1 (configuration not stated)
27 | 1040 | CCn1c(C)c(C(=O)C(C)N(C(=O)c2ccc(C)cc2)C2CC2)c(C)c1C(=O)OC (configuration not stated)
28 | 1240 | Cc1sc(-c2nc(C(C)C)cs2)cc1S(=O)(=O)NC1CCCC1
29 | 829 | COC(=O)c1cc(OC)c(OC)cc1NC(=O)C1=Cc2cc(OC)ccc2OC=C1
30 | 667 | O=C(NCCNC(=O)c1cccc(Cl)c1)c1ccc(NC(=O)C2CC2)cc1
31 | 890 | O=C(c1ccc(Cl)c(Cl)c1)N1CCC2(CC1)OCCS2
32 | 654 | CCOc1ccc(C2=NC3(CCN(C(C)C)CC3)NC(c3cc(Br)ccc3O)C2)cc1 (configuration not stated)
33 | 717 | CCC(=O)N1CCc2cc(N3CC(C(=O)Nc4ccc(C(C)=O)cc4)CC3=O)ccc21 (configuration not stated)
34 | 611 | CCCN(Cc1ccc(OC)c(OC)c1)Cc1cc(=O)n2cc(C)ccc2n1
35 | 555 | O=C(CCc1ccc2nc(-c3ccccc3)[nH]c2c1)NCc1cccnc1
36 | 590 | COC[C@@H]1CN(Cc2ccc(OC)cc2OC)C[C@H]1c1ccncc1
37 | 563 | CC(C)c1nnc(C2CN(C)CC23CCN(Cc2cc(Cl)ccc2F)CC3)o1 (configuration not stated)
38 | 753 | Cc1ccc(CNC(=O)Cn2nc3c4ccc(Cl)cc4ncn3c2=O)cc1
39 | 603 | Cn1cc(-c2cc3n(n2)CCC(=O)N3CC(=O)NCCCN2CCOCC2)c2ccccc21
40 | 616 | COCCNC(=O)c1cn2ccc(C)cc2n1
41 | 1020 | O=c1ccc(-c2ccc(F)cc2)nn1CCc1nc(-c2ccccc2Cl)no1
42 | 670 | CC(C)N1CCN(c2ncccc2-c2nnc(-c3ccc(Cl)cc3)o2)CC1
43 | 822 | O=C(CSc1ccc(S(=O)(=O)c2ccccc2)nn1)Nc1ccc2c(c1)OCO2
44 | 642 | O=C(CN1C(=O)CCC1=O)Nc1nnc(-c2ccc(Cl)s2)o1
45 | 748 | CC(C)CNC(=O)CCc1nc2ccccc2n(CC(=O)NCc2ccc3c(c2)OCO3)c1=O
46 | 899 | O=C(NCCn1ccc2ccccc21)C(=O)c1c[nH]c2ccccc12
47 | 1190 | COc1ccc(NC(=O)c2c(O)c3cccnc3n(-c3cccc(F)c3)c2=O)cc1
48 | 639 | O=C(CCCc1ccccc1)NC1CCN(c2nnc3ccc(Cl)cn23)CC1
49 | 677 | Cc1cccc2nnc(N3CCC(C(=O)Nc4ccccc4F)CC3)n12
50 | 637 | CCCNc1cc(N2CCCC(CCC(=O)N3CCN(c4ncccn4)CC3)C2)ncn1 (configuration not stated)

The next lines start with the molecule.

Row | SMILES | RP-LC retention time [s]
51 | CCCCCCNC(=O)C1CCN(C(=O)C(C)(C)C)CC1 | 804
52 | CCCCn1nc(-c2nc(-c3ccc(F)cc3)no2)ccc1=O | 1100
53 | Cc1noc(CNC(=O)CN(C)c2nc3c(C)ccc(C)c3s2)n1 | 772
54 | CC1(c2cccc3ccccc23)OC(=O)c2ccccc21 (configuration not stated) | 1030
55 | CCOC(=O)Cc1c(C)nc2c(-c3ccccc3)cnn2c1C | 1000
56 | COCC1(O)CCOC2(CCN(Cc3ccc(F)c(Cl)c3)CC2)C1 (configuration not stated) | 560
57 | O=C(Nc1ccc2c(c1)OCCO2)N1CCN(Cc2nc3cccnc3n2-c2ccccc2)CC1 | 635
58 | Cc1ccc(CNC(=O)C2CCCN(c3cnc4nc(C)c(C)nc4c3)C2)cc1 (configuration not stated) | 741
59 | COc1ccc(OCC2c3cc(OC)c(OC)cc3CCN2C(=O)c2cccc(Cl)c2)cc1 (configuration not stated) | 1120
60 | Cc1ccccc1CNC(=O)C1(C)CCCN(C(=O)Nc2cccc(C)c2C)C1 (configuration not stated) | 977
61 | CCOc1ccc(-c2[nH]ncc2CNS(=O)(=O)c2cccc(C(F)(F)F)c2)cc1 | 902
62 | Cc1c(Cl)cccc1NC(=O)C(=O)NCC1(c2ccc(F)cc2)CC1 | 1110
63 | Cc1ccc(CN2CCN(C3CCN(C(=O)NCc4ccc(F)cc4)CC3)C(=O)C2=O)cc1 | 767
64 | CC(C)N1C(=O)Cc2ccccc2C1C(=O)NCc1ccco1 (configuration not stated) | 720
65 | O=C(c1ccc2[nH]ccc2c1)N1CCN(c2cc(-c3ccc(Cl)cc3)[nH]n2)CC1 | 798
66 | Cc1nn(-c2ccccc2)c(C)c1S(=O)(=O)N1CCC(C(=O)N2c3ccccc3CC2C)CC1 (configuration not stated) | 1060
67 | O=C(c1ccco1)N1CCN(c2nc(-c3ccc(Cl)cc3)nc3ccccc23)CC1 | 747
68 | Cn1cc(C(=O)NCc2cccs2)c2cccnc21 | 691
69 | COC1C(=O)N(c2cccc(F)c2)C12CCN(C(=O)C1(c3ccccc3)CC1)CC2 (configuration not stated) | 994

Row | SMILES | RP-LC retention time [s]
70 | CCN(C(=O)Cn1nc2cc(-c3ccccc3)nc(C)n2c1=O)c1ccccc1 | 985
71 | CCCn1c(CCc2ccccc2NS(=O)(=O)c2ccc3c(c2)OCCO3)nc2ccccc21 | 763
72 | CC(C)NC(=O)N(CC(=O)N1CCc2sccc2C1COc1cccc(F)c1)CC1CCCO1 (configuration not stated) | 950
73 | O=C(NCCC1=CCCCC1)C1CCCN(c2nc3ccccc3n(Cc3ccccc3)c2=O)C1 (configuration not stated) | 1310
74 | O=C1NCCOCCCN(C(=O)Nc2ccccc2)[C@H]2CCC[C@@H]12 | 741
75 | CCOC(=O)c1c(C)[nH]c(CCC(=O)NCCc2cccs2)c1C | 822
76 | COc1ccccc1N1CC(c2nc3ccccc3n2CC(=O)N(C(C)C)C(C)C)CC1=O (configuration not stated) | 752
77 | Cc1nc([C@@H]2CN(C(=O)CCc3nc4ccccc4s3)C[C@H]2C(N)=O)n[nH]1 | 599
78 | O=C(Cc1ccsc1)Nc1ccc2c(N3CCOCC3)ncnc2c1 | 619
79 | CCc1nc2cc(N3CCC(C(=O)NCCN4CCOCC4)CC3)cnc2nc1CC | 581
80 | CC1CCCN(c2nc(=O)n(CC(=O)Nc3ccc4c(c3)OCCO4)c3ccccc23)C1 (configuration not stated) | 780
81 | COCCN1CC2(CCN(S(=O)(=O)c3ccccc3Cl)CC2)C1c1ccccc1 (configuration not stated) | 719
82 | CCc1nc2c(c(=O)n1CC(=O)NC1CCCCC1)CN(Cc1ccccc1)CC2 | 652
83 | CCn1cc(-c2ccc(C)cc2)cc1C(=O)N1CCC2(CC1)OCCO2 | 1000
84 | COC(=O)c1ccc(N2C=C(C#N)S(=O)(=O)c3cc(F)ccc32)cc1 | 847
85 | COc1ccc(-n2c(=O)c3sccc3n(Cc3nc(-c4cccc(OC)c4)no3)c2=O)cc1 | 949
86 | CC1Oc2ccccc2C=C1/C=C1\Oc2cc(OC(=O)N(C)C)ccc2C1=O (configuration not stated) | 795
87 | N=C(N)SCCc1ccc(OCc2ccc([N+](=O)[O-])cc2)cc1 | 787
